In ChEMBL document CHEMBL3885881, “DrugMatrix”:

Species: Rattus norvegicus
Test: DrugMatrix - Regimen: Daily Repeat
Assay type: toxicity, organism-based, Sprague-Dawley
Design: regimen Daily Repeat, gender Male, age 6-8 weeks
Settings: in vivo, po, route oral GAVAGE, vehicle .5 % CMC; for TOTAL PROTEIN / ALANINE AMINOTRANSFERASE / ALBUMIN / ALKALINE PHOSPHATASE / ASPARTATE AMINOTRANSFERASE / CARBON DIOXIDE / CHLORIDE / CHOLESTEROL / CREATINE PHOSPHOKINASE / CREATININE / GLUCOSE / LACTATE DEHYDROGENASE / LIPASE / PHOSPHORUS / POTASSIUM / SODIUM / TOTAL BILIRUBIN / BLOOD UREA NITROGEN: tissue Plasma; for ABSOLUTE BASOPHIL / ABSOLUTE EOSINOPHIL / ABSOLUTE LYMPHOCYTE / ABSOLUTE MONOCYTE / ABSOLUTE SEGMENTED NEUTROPHIL / BASOPHIL / EOSINOPHIL / ERYTHROCYTE COUNT / HEMATOCRIT / HEMOGLOBIN / LEUKOCYTE COUNT / LYMPHOCYTE / MEAN CORPUSCULAR HEMOGLOBIN / MEAN CORPUSCULAR HEMOGLOBIN CONCENTRATION / MEAN CORPUSCULAR VOLUME / MONOCYTE / NEUTROPHIL / NUCLEATED RED BLOOD CELLS / PLATELET COUNT: tissue Blood
[1] = 25 mg/kg, 120 h, dose level Low, time 5 day
[2] = 1500 mg/kg, 72 h, dose level High, time 3 day
[3] = 1500 mg/kg, 120 h, dose level High, time 5 day

COc1cc(/C=C/C(=O)O)ccc1O [FERULATE]
TOTAL PROTEIN (25 mg/kg, 72 h, dose level Low, time 3 day): 5.97 G/DL | ABSOLUTE BASOPHIL [1]: 0 CELLS/uL | ABSOLUTE EOSINOPHIL [1]: 170 CELLS/uL | ABSOLUTE LYMPHOCYTE [1]: 14805 CELLS/uL | ABSOLUTE MONOCYTE [1]: 286 CELLS/uL | ABSOLUTE SEGMENTED NEUTROPHIL [1]: 1439 CELLS/uL | BASOPHIL [1]: 0% | EOSINOPHIL [1]: 1.33% | ERYTHROCYTE COUNT [1]: 5.63 x10E6/uL | HEMATOCRIT [1]: 35.7% | HEMOGLOBIN [1]: 13.7 G/DL | LEUKOCYTE COUNT [1]: 16.7 x10E3/uL | LYMPHOCYTE [1]: 87.67% | MEAN CORPUSCULAR HEMOGLOBIN [1]: 24.43 pg | MEAN CORPUSCULAR HEMOGLOBIN CONCENTRATION [1]: 38.37 G/DL | MEAN CORPUSCULAR VOLUME [1]: 63.63 fL | MONOCYTE [1]: 1.67% | NEUTROPHIL [1]: 9.33% | NUCLEATED RED BLOOD CELLS [1]: 0.33 /100WBC | PLATELET COUNT [1]: 1379.67 x10E3/uL | ALANINE AMINOTRANSFERASE [1]: 52.67 u/L | ALBUMIN [1]: 4.27 G/DL | ALKALINE PHOSPHATASE [1]: 350.33 u/L | ASPARTATE AMINOTRANSFERASE [1]: 91.33 u/L | CARBON DIOXIDE [1]: 28 mmol/L | CHLORIDE [1]: 104.67 MEQ/L | CHOLESTEROL [1]: 79.67 mg/dL | CREATINE PHOSPHOKINASE [1]: 317 u/L | CREATININE [1]: 0.18 mg/dL | GLUCOSE [1]: 160.67 mg/dL | LACTATE DEHYDROGENASE [1]: 421.67 u/L | LIPASE [1]: 9.33 u/L | PHOSPHORUS [1]: 12.9 mg/dL | POTASSIUM [1]: 6.65 MEQ/L | SODIUM [1]: 144.87 MEQ/L | TOTAL BILIRUBIN [1]: 0.17 mg/dL | TOTAL PROTEIN [1]: 5.93 G/DL | ABSOLUTE BASOPHIL [2]: 0 CELLS/uL | ABSOLUTE EOSINOPHIL [2]: 42 CELLS/uL | ABSOLUTE LYMPHOCYTE [2]: 12584.67 CELLS/uL | ABSOLUTE MONOCYTE [2]: 382 CELLS/uL | ABSOLUTE SEGMENTED NEUTROPHIL [2]: 1124.67 CELLS/uL | BASOPHIL [2]: 0% | EOSINOPHIL [2]: 0.33% | ERYTHROCYTE COUNT [2]: 5.75 x10E6/uL | HEMATOCRIT [2]: 35.2% | HEMOGLOBIN [2]: 13.03 G/DL | LEUKOCYTE COUNT [2]: 14.13 x10E3/uL | LYMPHOCYTE [2]: 89% | MEAN CORPUSCULAR HEMOGLOBIN [2]: 22.7 pg | MEAN CORPUSCULAR HEMOGLOBIN CONCENTRATION [2]: 37.03 G/DL | MEAN CORPUSCULAR VOLUME [2]: 61.23 fL | MONOCYTE [2]: 2.67% | NEUTROPHIL [2]: 8% | NUCLEATED RED BLOOD CELLS [2]: 0.33 /100WBC | PLATELET COUNT [2]: 1425.67 x10E3/uL | ALANINE AMINOTRANSFERASE [2]: 67.67 u/L | ALBUMIN [2]: 4.13 G/DL | ALKALINE PHOSPHATASE [2]: 355 u/L | ASPARTATE AMINOTRANSFERASE [2]: 102.67 u/L | BLOOD UREA NITROGEN [2]: 13.67 mg/dL | CARBON DIOXIDE [2]: 25.67 mmol/L | CHLORIDE [2]: 103.33 MEQ/L | CHOLESTEROL [2]: 81.67 mg/dL | CREATINE PHOSPHOKINASE [2]: 489 u/L | CREATININE [2]: 0.15 mg/dL | GLUCOSE [2]: 140.67 mg/dL | LACTATE DEHYDROGENASE [2]: 475.67 u/L | LIPASE [2]: 10 u/L | PHOSPHORUS [2]: 10.73 mg/dL | POTASSIUM [2]: 6.23 MEQ/L | SODIUM [2]: 143.87 MEQ/L | TOTAL BILIRUBIN [2]: 0.2 mg/dL | TOTAL PROTEIN [2]: 5.5 G/DL | ABSOLUTE BASOPHIL [3]: 0 CELLS/uL | ABSOLUTE EOSINOPHIL [3]: 97 CELLS/uL | ABSOLUTE LYMPHOCYTE [3]: 18780.67 CELLS/uL | ABSOLUTE MONOCYTE [3]: 55.33 CELLS/uL | ABSOLUTE SEGMENTED NEUTROPHIL [3]: 967 CELLS/uL | BASOPHIL [3]: 0% | EOSINOPHIL [3]: 0.33% | ERYTHROCYTE COUNT [3]: 6.33 x10E6/uL | HEMATOCRIT [3]: 38.23% | HEMOGLOBIN [3]: 14.4 G/DL | LEUKOCYTE COUNT [3]: 19.9 x10E3/uL | LYMPHOCYTE [3]: 94% | MEAN CORPUSCULAR HEMOGLOBIN [3]: 22.73 pg | MEAN CORPUSCULAR HEMOGLOBIN CONCENTRATION [3]: 37.67 G/DL | MEAN CORPUSCULAR VOLUME [3]: 60.37 fL | MONOCYTE [3]: 0.33% | NEUTROPHIL [3]: 5.33% | NUCLEATED RED BLOOD CELLS [3]: 0.33 /100WBC | PLATELET COUNT [3]: 1095 x10E3/uL | ALANINE AMINOTRANSFERASE [3]: 64.33 u/L | ALBUMIN [3]: 4.57 G/DL | ALKALINE PHOSPHATASE [3]: 399 u/L | ASPARTATE AMINOTRANSFERASE [3]: 93.67 u/L | BLOOD UREA NITROGEN [3]: 16.33 mg/dL | CARBON DIOXIDE [3]: 26 mmol/L | CHLORIDE [3]: 107 MEQ/L | CHOLESTEROL [3]: 64.67 mg/dL | CREATINE PHOSPHOKINASE [3]: 723.33 u/L | CREATININE [3]: 0.21 mg/dL | GLUCOSE [3]: 164.33 mg/dL | LACTATE DEHYDROGENASE [3]: 166.67 u/L | LIPASE [3]: 9.67 u/L | PHOSPHORUS [3]: 11.4 mg/dL | POTASSIUM [3]: 6.41 MEQ/L | SODIUM [3]: 146.6 MEQ/L | TOTAL BILIRUBIN [3]: 0.2 mg/dL | TOTAL PROTEIN [3]: 6.17 G/DL
